From patent US7998950B2, “Antiviral compounds” (Gilead Sciences, Inc., priority 2008, dated 2011)

test system: HIV-IIIb; experiment: Antiviral assay in MT-2 cells infected with HIV-IIIb; type: cell-based; conditions: Human immunodeficiency virus 1, IIIB, MT2, 120 h, MT-2 cells infected with HIV-IIIb, m.o.i. 0.01, 10% FBS, 5 days at 37° C., CellTiter-Glo chemiluminescence; read-out: EC50 in MT-2 cells

Row | EC50 | Structure (SMILES)
1 | 2.8 nM | CNC(=O)c1c(O)c2ncc(Cc3ccc(F)cc3)c3c2n(c1=O)C[C@@H](CN(C)C(C)(C)C)O3 [Example 201]
2 | 12 nM | CNC(=O)c1c(O)c2ncc(Cc3ccc(F)cc3)c3c2n(c1=O)C[C@@H](CN(C)CCO)O3 [Example 202]
3 | 12 nM | CNC(=O)c1c(O)c2ncc(Cc3ccc(F)cc3)c3c2n(c1=O)C[C@@H](Cn1ccnc1C)O3 [Example 203]
4 | 1 nM | CNC(=O)c1c(O)c2ncc(Cc3ccc(F)cc3)c3c2n(c1=O)C[C@@H](Cn1ccnc1C(=O)NC)O3 [Example 205]
5 | 0.1 nM | CNC(=O)c1c(O)c2ncc(Cc3ccc(F)cc3)c3c2n(c1=O)C[C@@H](CN(C)S(C)(=O)=O)O3 [Example 206]
6 | 4.6 nM | CNC(=O)c1c(O)c2ncc(Cc3ccc(F)cc3)c3c2n(c1=O)C[C@@H](CN(C)C(=O)c1nnc(C)o1)O3 [Example 207]
7 | 0.6 nM | CNC(=O)c1c(O)c2ncc(Cc3ccc(F)cc3)c3c2n(c1=O)C[C@H](CN(C)S(C)(=O)=O)O3 [Example 208]
8 | 5.1 nM | CNC(=O)c1c(O)c2ncc(Cc3ccc(F)cc3)c3c2n(c1=O)C[C@H](CN(C)C(C)=O)O3 [Example 209]
9 | 3.2 nM | O=C(NCCO)c1c(O)c2ncc(Cc3ccc(F)cc3)c3c2n(c1=O)CCO3 [compound 12]
10 | 7 nM | O=C(NCCN1CCOCC1)c1c(O)c2ncc(Cc3ccc(F)cc3)c3c2n(c1=O)CCO3 [compound 13]
11 | 5.5 nM | O=C(NCCN1CCNC1=O)c1c(O)c2ncc(Cc3ccc(F)cc3)c3c2n(c1=O)CCO3 [compound 14]
12 | 13 nM | O=C(NCCN(CCO)CCO)c1c(O)c2ncc(Cc3ccc(F)cc3)c3c2n(c1=O)CCO3 [compound 15]
13 | 12 nM | CC(C)N1CCN(CCNC(=O)c2c(O)c3ncc(Cc4ccc(F)cc4)c4c3n(c2=O)CCO4)CC1 [compound 16]
14 | 20 nM | O=C(NCCN1CCNCC1)c1c(O)c2ncc(Cc3ccc(F)cc3)c3c2n(c1=O)CCO3 [compound 18]
15 | 4.6 nM | O=C(NCCO)c1c(O)c2ncc(Cc3ccc(F)cc3)c3c2n(c1=O)CCCO3 [compound 24]
16 | 7 nM | O=C(NCCO)c1c(O)c2ncc(Cc3ccc(F)cc3)c3c2n(c1=O)CCN3 [compound 30]
17 | 6 nM | O=C(NCCOCc1ccccc1)c1c(O)c2ncc(Cc3ccc(F)cc3)c3c2n(c1=O)CCN3 [compound 32]

Row | EC50 | Structure (SMILES)
18 | 3.3 nM | COCCNC(=O)c1c(O)c2ncc(Cc3ccc(F)cc3)c3c2n(c1=O)CCN3 [compound 33]
19 | 9.5 nM | O=C(NCCCN1CCCC1=O)c1c(O)c2ncc(Cc3ccc(F)cc3)c3c2n(c1=O)CCN3 [compound 34]
20 | 5.5 nM | O=C(NCCN1CCOCC1)c1c(O)c2ncc(Cc3ccc(F)cc3)c3c2n(c1=O)CCN3 [compound 35]
21 | 3.5 nM | O=C(NC1CC1)c1c(O)c2ncc(Cc3ccc(F)cc3)c3c2n(c1=O)CCN3 [compound 36]
22 | 5.8 nM | CNC(=O)c1c(O)c2ncc(Cc3ccc(F)cc3)c3c2n(c1=O)CCN3 [compound 37]
23 | 8.5 nM | CCOCCNC(=O)c1c(O)c2ncc(Cc3ccc(F)cc3)c3c2n(c1=O)CCN3 [compound 38]
24 | 9.5 nM | CC(C)(O)CNC(=O)c1c(O)c2ncc(Cc3ccc(F)cc3)c3c2n(c1=O)CCN3 [compound 39]
25 | 982 nM | CC(=O)N1CCn2c(=O)c(C(=O)NCCO)c(O)c3ncc(Cc4ccc(F)cc4)c1c32 [compound 43]
26 | 2 nM | CN1CCn2c(=O)c(C(=O)NCCO)c(O)c3ncc(Cc4ccc(F)cc4)c1c32 [compound 45]
27 | 17 nM | O=C(NC1CC1)c1c(O)c2ncc(Cc3ccc(F)cc3)c3c2n(c1=O)CCCN3 [compound 50]
28 | 4 nM | C[C@@H](CO)NC(=O)c1c(O)c2ncc(Cc3ccc(F)cc3)c3c2n(c1=O)CCCN3 [compound 51]
29 | 8 nM | COCCNC(=O)c1c(O)c2ncc(Cc3ccc(F)cc3)c3c2n(c1=O)CCCN3 [compound 52]
30 | 85 nM | CC1(C)Cn2c(=O)c(C(=O)NCCO)c(O)c3ncc(Cc4ccc(F)cc4)c1c32 [compound 59]
31 | 400 nM | CC1(C)Cn2c(=O)c(C(=O)NCCN3CCOCC3)c(O)c3ncc(Cc4ccc(F)cc4)c1c32 [compound 60]
32 | 1.5 nM | O=C(NCCO)c1c(O)c2ncc(Cc3ccc(F)cc3)c3c2n(c1=O)CCC3 [compound 65]
33 | 20 nM | Cc1cn2c(=O)c(C(=O)NCCO)c(O)c3ncc(Cc4ccc(F)cc4)c1c32 [compound 72]
34 | 7 nM | O=C(NCCO)c1c(O)c2ncc(Cc3ccc(F)cc3)c3c2n(c1=O)CC(F)(F)CN3 [compound 79]

same assay, conditions: Human immunodeficiency virus 1, IIIB, MT2, 120 h, read-out: EC50 in MT-2 cells (nM)

Row | Structure (SMILES) | EC50
35 | CNC(=O)c1c(O)c2ncc(Cc3ccc(F)cc3)c3c2n(c1=O)C[C@@H](CN(C)S(=O)(=O)N(C)C)O3 [Example 210] | 5 nM
